Measured values: publication PMC8703450, “New Heterocyclic Combretastatin A-4 Analogs: Synthesis and Biological Activity of Styryl-2(3H)-benzothiazolones” (Pharmaceuticals, 2021)

Tests used:
[1] = test system: MDA-MB-231 cells; test: MTT cytotoxicity assay, MDA-MB-231; type: cell-based, human
Experimental: (§1) All tested compounds were dissolved in DMSO at 25 mM initial concentration and diluted with medium to obtain the working concentrations (0.01 nM–250 µM). Serial drug dilutions were prepared in medium immediately before each experiment. The DMSO working concentration in the medium was […]. For the MTT assay, cells were seeded into 96-well microtitre plates at a density of 1 × 10^4 in 100 µL complete medium per well. They were further incubated for 24 h, followed by treatment with CA-4 analogs up to 72 h. Cell viability was determined using the MTT assay. Ten µL of MTT solution (5 mg/mL) was added to each well and further incubated for 3 h at 37 °C. To dissolve the formazan product, 100 µL/well of 99.5% isopropanol was added. Cell viability was determined by measuring absorbance at 550/630 nm using a DTX880 plate reader (Beckman Coulter, USA). Results, expressed as concentrations that inhibit 20% (IC20), 50% (IC50), and 80% (IC80) of cell growth, were calculated using GraphPad Prism 8.0.1.
Table S 3.1. Description of eukaryotic cell lines used for MTT assay. […]
Kindly provided 3.1 g/L Glucose,
mammary by Prof. Iana DMEM/F12 with
Breast MDA- gland/breast; derived Tsoneva 10% FBS, 100 U/mL
MB-231 h from metastatic site: (IBPhBME – penicillin, 100 U/mL
pleural effusion; BAS) streptomycin (Lonza). […]

[2] = test system: rhodamine-labeled α,β-tubulin; test: Ex vivo rhodamine-tubulin polymerization (fluorescence microscopy); conditions: 20 μM, 37 °C, 45 min
Experimental: TAMRA-Tubulin (TL590M, Cytoskeleton) diluted in GTB buffer (PEM, 10% glycerol, 1 mM GTP) was mixed with unlabeled α,β-tubulin (T240, Cytoskeleton) at a ratio of 1:3 (v/v) to a concentration of 4.0 mg/mL. […] Samples were then centrifuged for 20 min at 30,000× g. The pellets were diluted in 6 µL PEM buffer, containing 1 mM GTP and 0.5% glutaraldehyde, mixed with anti-fade mounting media (P36934, Invitrogen, Eugene, USA), and examined under a confocal LSM 980 Airyscan microscope (Carl Zeiss AG, Oberkochen, Germany).

[3] = test system: MCF-10A cells; test: MTT cytotoxicity assay, MCF-10A control cells; type: cell-based, human; conditions: Homo sapiens, 72 h
Experimental: as §1
(§2) Table S 3.1. Description of eukaryotic cell lines used for MTT assay.
(§3) Panel Cell line Origin Tissue, characteristics Source Culture conditions […]
(§4) (h) lung carcinoma ATCC, CCL-185 U/mL penicillin, 100 […]
(§5) lung, bronchus; insulin, rhEGF, GA-BEAS-2B h epithelial virus ATCC, CRL- 1000, BPE, transformed 9609 transferrin,
(§6) HT-29 h colon, colorectal Radostina adenocarcinoma Alexandrova 3.1 g/L D-Glucose […]

[4] = test system: caspase 3, 8 and 9; test: Western blot analysis of caspase activation; type: cell-based, human; conditions: EA.hy926, 24 h
Experimental: A total of 7 × 10^5 cells was seeded in 100-mm dishes. On the next day, cells were treated with the corresponding concentrations of CA-4 and 26Z. After 24 h, treated cells were collected and lysed with lysis buffer (50 mM HEPES, pH 7.7, 250 mM KCl, 10% glycerol, 0.1% Nonidet P-40) containing protease inhibitors (0.4 mM sodium vanadate, 0.5 mM PMSF, 1 mM DTT, […]) by incubation on ice for 30 min and overnight at −20 °C [80]. The concentration of obtained total cell protein lysates was determined by the method of Bradford. Samples were separated on 12% polyacrylamide gels and transferred to nitrocellulose or PVDF membranes. Immunoblotting was performed by blocking in 3.5% non-fat dried milk in PBS, with subsequent incubation for 1 h with primary antibodies for caspase 3 (sc-56053, Santa Cruz Biotechnology), caspase 8 (sc-81656, Santa Cruz Biotechnology), caspase 9 (sc-8355, Santa Cruz Biotechnology), and PARP-1 (sc-8007, Santa Cruz Biotechnology), diluted in PBS containing 0.05% Tween-20. This was followed by incubation with a peroxidase-conjugated secondary antibody m-Igk BP-HRP (sc-516102, Santa Cruz Biotechnology) or a donkey anti-rabbit IgG-HRP (sc-2313, Santa Cruz Biotechnology) for 1 h, and detection of the chemiluminescent signal was accomplished with ECL Select^TM Western Blotting Detection Reagent (Amersham) on X-ray film. β–actin was used as a loading control and mouse monoclonal antibody was used following the manufacturer’s instruction (sc-47778, Santa Cruz Biotechnology).

[5] = test system: A549 cells; test: MTT cytotoxicity assay, A549; type: cell-based; conditions: Homo sapiens, 72 h
Experimental: as §1, §2
Panel Cell line Origin Tissue, characteristics Source Culture conditions
(h) lung carcinoma ATCC, CCL-185 U/mL penicillin, 100
lung, bronchus; insulin, rhEGF, GA- […]
Colon BAS) 10% (v/v) FBS, 100

[6] = test system: EA.hy926 cells; test: In vitro cell migration (wound-healing) assay; type: cell-based, human; conditions: 24 h
Experimental: A total of 3 × 10^5 EA.hy926 cells were seeded in a 12-well plate and grown close to the confluence. The cell monolayer was gently scraped with a P200 pipette tip, creating a wound area around 1-mm wide. Cells were washed twice with fresh medium and treated with test compounds diluted in growth media to the corresponding sub-toxic concentrations. Images were acquired at 0 and 24 h following treatment. After incubation for 24 h, the scratch wound width was measured and recorded, and then compared with the initial scratch wound width at 0 h. Using the ImageJ image processing program (ImageJ150-WIN-Java8), the size of the denuded area in pixels was determined at each time point from the digital images.

[7] = test system: EA.hy926 cells; test: Immunofluorescence of mitotic spindles (α-tubulin); type: cell-based, human; conditions: 24 h
Experimental: Indirect immunofluorescence was used to examine the effect of 26Z on α-tubulin in EA.hy 926 cells. A total of 1 × 10^4 cells grown on coverslips were washed with PBS and fixed with 3.7% buffered paraformaldehyde. Single fluorescence cell labeling was performed, as described by Apostolova et al., with a primary chicken antibody against α-tubulin (ab89984, Abcam) for 2 h. Cells were washed three times with PBS for 5 min and incubated for 60 min with a goat anti-chicken secondary antibody labeled with AlexaFluor-488 (ab150173, Abcam). F-actin was detected using AlexaFluor-568 Phalloidin (Invitrogen, MA, USA). Following three washes with PBS and two in water, the slides were mounted in UltraCruz fluorescence mounting medium with DAPI (sc-24941, Santa Cruz Biotechnology, USA). Fluorescence microscopy was performed with a Carl Zeiss Axiovert 200 M Inverted Microscope and Andor Dragonfly 505 Confocal Microscope equipped with an iXon Ultra 888 EMCCD camera (Andor, Oxford Instruments, Belfast, Northern Irelands).

[8] = MTT cytotoxicity assay, MCF-10A control cells; type: cell-based, human; conditions: human, read-out: Cytostatic activity (% viable cells)
Experimental: as §1, §2, §3, §4, §5, §6

In the case of `COc1ccc(/C=C\c2cc(OC)c(OC)c(OC)c2)cc1O` [CA-4, Combretastatin A-4], the “Cytostatic activity (% viable cells)” value ([1]; MDA-MB-231 cells, 72 h, MTT) is reported as 55%, the “fluorescent microtubule fiber formation” value [2] is reported as “blocked the process of fiber formation” and the IC50 [3] is reported as 1640 ± 340 nM. For the same compound, the “active forms of effector caspase 3” value ([4]; CA-4 IC50 and 26Z IC20) was “to a lesser extent”, the IC50 [5] was 3010 ± 160 nM and the “remaining mean wound opened area” value ([6]; EA.hy926, 1 nM) was 24.4%.

For `COc1cc(/C=C\c2ccc3c(c2)sc(=O)n3C)cc(OC)c1OC` [Compound 26Z, (Z)-3-methyl-6-(3,4,5-trimethoxystyryl)-2(3H)-benzothiazolone], the “number of spindle poles (multipolarity)” value ([7]; EA.hy926, IC50 (130 nM)) was 3.9 ± 0.99, the “number of spindle poles (multipolarity)” value ([7]; EA.hy926, IC80 (300 nM)) was 8.8 ± 2.3 and the IC50 ([1]; Homo sapiens, MDA-MB-231, 72 h) was 1350 ± 420 nM. For the same compound, the “fluorescent microtubule fiber formation” value [2] was “blocked the process of fiber formation”, the viability at 72 h [8] was 65% and the “activation of caspases 8 and 9” value [4] was “activated”. The “active forms of effector caspase 3” value ([4]; 26Z at IC50 and IC80) was “detected”, the “active forms of effector caspase 3” value ([4]; CA-4 IC50 and 26Z IC20) was “to a lesser extent” and the “remaining mean wound opened area” value ([6]; EA.hy926, 50 nM) was 49%.
